Laboratory results as given in PMC11440508, “Dually Labeled Neurotensin NTS1R Ligands for Probing Radiochemical and Fluorescence-Based Binding Assays” (Journal of Medicinal Chemistry, 2024).

Target: NTS1R (Homo sapiens, UniProt P30989)
Experiment: Radiochemical saturation binding, adherent HT-29 cells
Details: 23 °C
Description: Binding of both ligands, [^3H]13 and [^3H]18, was studied at adherent and suspended intact CHO-hNTS1R cells, and binding of [^3H]13 was additionally studied using CHO-hNTS1R cell membrane preparations (saturation and competition binding, kinetic studies). Furthermore, saturation binding experiments were performed with both ligands at intact adherent HT-29 cells. All experiments were performed in triplicate except for dissociation experiments performed with suspended cells in 50 mL flacon tubes (performed in duplicate). To reduce radioligand consumption in the aforementioned experiments, [^3H]13 and [^3H]18 were 1:1 diluted with 13 and 18, respectively (for the purpose of easier reading these mixtures are denoted "[^3H]13" and "[^3H]18"in the following). All samples were incubated at 23 ± 1 °C in the dark under gentle shaking (incubation times are outlined below). DPBS1 served as binding buffer throughout. In the case of experiments performed with cell suspensions, CHO-hNTS1R cells were seeded in T75 culture flasks 3–4 days prior to the experiment. […] The plates were sealed with transparent sealing tape (Greiner EASYseal, part no. 676001, Greiner Bio-One) and shaken in the dark overnight before measurement of the radioactivity (dpm) using a MicroBeta2 plate counter equipped with six pairs of photomultiplier tubes (PerkinElmer). […]

Chain of NTS1R (P30989 whole entry): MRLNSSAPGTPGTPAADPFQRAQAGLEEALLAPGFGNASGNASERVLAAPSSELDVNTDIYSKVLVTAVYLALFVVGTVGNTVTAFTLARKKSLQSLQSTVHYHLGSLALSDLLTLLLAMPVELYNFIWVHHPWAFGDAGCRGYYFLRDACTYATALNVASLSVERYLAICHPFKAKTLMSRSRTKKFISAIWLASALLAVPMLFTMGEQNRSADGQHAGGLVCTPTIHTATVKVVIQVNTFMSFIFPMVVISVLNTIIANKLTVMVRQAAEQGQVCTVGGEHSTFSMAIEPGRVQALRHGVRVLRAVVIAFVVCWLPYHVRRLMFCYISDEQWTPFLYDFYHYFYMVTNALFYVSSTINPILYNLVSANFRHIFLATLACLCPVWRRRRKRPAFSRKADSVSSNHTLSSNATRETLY

Q: How did the Kd turn out when `CCC(=O)NCCCCNC(=O)NC(=N)NCCC[C@H](NC(=O)[C@@H]1CCCN1C(=O)[C@@H](NC(=O)CCc1cn(CCCNC(=O)c2ccc(-c3c4ccc(=[N+](C)C)cc-4oc4cc(N(C)C)ccc34)c(C(=O)[O-])c2)nn1)C1CCNCC1)C(=O)N[C@@H](CCCNC(=N)N)C(=O)N1CCC[C@H]1C(=O)N[C@@H](Cc1ccc(O)cc1)C(=O)N[C@H](C(=O)N[C@@H](CC(C)C)C(=O)O)[C@@H](C)CC` [[^3H]13] was run?
A: 1.2 ± 0.1 nM
